{
  "source": "patent US12030896B2",
  "about": "“PIKfyve inhibitors” (Mayo Foundation for Medical Education and Research, priority 2018, dated 2024)",
  "key": {"468 kinases": {"system": "468 kinases", "assay": "Kinase selectivity panel (Treespot dendrogram)", "format": "binding", "method": "In contrast, 50 nM Apilimod inhibited two kinases to 1% or 10%, and 3 kinases to 35% of control. To examine non-specific binding at higher concentrations, Example 1, Example 3, and Apilimod were tested at 5000 nM. […] PIKfyve is represented at the bottom left of each dendrogram."}, "[1]": {"settings": "cited from earlier work"}, "IL12 and IL23": {"system": "IL12 and IL23", "settings": "myeloid cells; cited from earlier work"}, "[2]": {"settings": "oral; cited from earlier work"}, "cells in culture": {"system": "cells in culture", "assay": "Vacuolization activity in cells in culture", "format": "cell-based", "from_the_text": "(§1) As used herein the term “EC50 (μM)” refers to the μM concentration of a compound that is required for 50% activity in a vacuolization assay.\nExample 2 is a biotinylated derivative of the compound of Example 1."}, "U251": {"system": "U251", "assay": "U251 Vacuolization Assay (24h)", "format": "cell-based", "settings": "Homo sapiens, U-251", "method": "as §1\nExample A—U251 Vacuolization Assay Data (24h) for Compounds of Examples 8-56"}, "U251 glioblastoma cell": {"system": "U251 glioblastoma cell", "assay": "Cell killing in combination with vemurafenib", "format": "cell-based, human", "settings": "10 μM vemurafenib, 0 μM Example 1, 72 hour", "method": "A 25 mM stock of vemurafenib (obtained from Selleckchem) in DMSO was diluted to 2× the indicated concentration into the cell suspension immediately prior to plating the cell suspension onto the pre-diluted Example 1 or Example 3, to result in a final 1× concentration of both compounds.\nSee FIG. 13 for showing of U251 glioblastoma cell killing by Example 1 alone or in the presence of 10 μM vemurafenib over a 72 hour time course."}},
  "note": "pEC50: −log10 of the molar value.",
  "data": [
    {"smiles": "Cc1cccc(/C=N/Nc2cc(N3CCOCC3)nc(OCCc3ccccn3)n2)c1", "note": "[Apilimod, 3-Methylbenzaldehyde 2-[6-(4-Morpholinyl)-2-[2-(2-pyridinyl)ethoxy]-4-pyrimidinyl]hydrazine]", "values": [
      {"measurement": "number of kinases blocked to 1% of control", "setting": "468 kinases; 50 nM, 468 kinases", "value": "two"},
      {"measurement": "number of kinases blocked to 10% of control", "setting": "468 kinases; 50 nM, 468 kinases", "value": "two"},
      {"measurement": "number of kinases blocked to 35% of control", "setting": "468 kinases; 50 nM, 468 kinases", "value": 3},
      {"measurement": "number of kinases blocked to 1% activity level", "setting": "468 kinases; 5000 nM", "value": 4},
      {"measurement": "number of kinases blocked to 10% activity level", "setting": "468 kinases; 5000 nM", "value": 9},
      {"measurement": "number of kinases blocked to 35% activity level", "setting": "468 kinases; 5000 nM", "value": 15},
      {"measurement": "selectivity for PIKfyve", "setting": "468 kinases; comparison of Example 1, Example 3 and apilimod", "value": "less specific"},
      {"measurement": "dose limiting toxicity", "setting": "[1]; headache, flushing, hypoesthesia, dizziness, paresthesia", "value": 105, "unit": "mg bid"},
      {"measurement": "mean improvement in PASI score", "setting": "[1]; oral, 70 mg qd", "value": 46, "unit": "%"},
      {"measurement": "patients with histologic improvement", "setting": "[1]; oral, 70 mg qd", "value": 47, "unit": "%"},
      {"measurement": "IL12 and IL23 expression in skin lesions", "setting": "[1]; oral", "value": "significantly reduced"},
      {"measurement": "IL12 and IL23 production", "setting": "IL12 and IL23", "value": "suppresses"},
      {"measurement": "IFN-gamma production by ex vivo cells", "setting": "[2]", "value": "decreased"},
      {"measurement": "TH1 / TH2 responses", "setting": "[2]", "value": "suppressed TH1 but not TH2 responses"},
      {"measurement": "inflammatory histopathologic skin changes", "setting": "[2]", "value": "markedly reduced"}
    ]},
    {"smiles": "O=C(CCCC[C@@H]1SC[C@@H]2NC(=O)N[C@@H]21)Nc1ccc(Nc2nc(N/N=C/c3c[nH]c4ccccc34)nc(N3CCOCC3)n2)cc1", "note": "[Example 2, (E)-N-(4-((4-(2-((1H-indol-3-yl)methylene)hydrazinyl)-6-morpholino-1,3,5-triazin-2-yl)amino)phenyl)-5-(2-oxohexahydro-1H-thieno[3,4-d]imidazol-4-yl)pentanamide]", "values": [
      {"measurement": "pEC50", "setting": "cells in culture", "value": 8.10}
    ]},
    {"smiles": "Cc1ccc(Nc2nc(N/N=C/c3c[nH]c4ccccc34)nc(N3CCOCC3)n2)nc1", "note": "[Example 45, {4-[N′-(1H-Indol-3-ylmethylene)-hydrazino]-6-morpholin-4-yl-[1,3,5]triazin-2-yl}-(5-methyl-pyridin-2-yl)-amine]", "values": [
      {"measurement": "pEC50", "setting": "U251", "value": "≥ 6.00"}
    ]},
    {"smiles": "CS(=O)(=O)Nc1ccc(Nc2nc(N/N=C/c3c[nH]c4ccccc34)nc(N3CCOCC3)n2)cc1", "note": "[Example 46, (E)-N-(4-((4-(2-((1H-indol-3-yl)methylene)hydrazinyl)-6-morpholino-1,3,5-triazin-2-yl)amino)phenyl)methanesulfonamide]", "values": [
      {"measurement": "pEC50", "setting": "U251", "value": "≥ 6.00"}
    ]},
    {"smiles": "Cc1ccc(Nc2nc(N/N=C/c3c[nH]c4ccccc34)nc(N3CCc4ccccc4C3)n2)cc1", "note": "[Example 47, (E)-4-(2-((1H-Indol-3-yl)methylene)hydrazinyl)-6-(3,4-dihydroisoquinolin-2(1H)-yl)-N-(p-tolyl)-1,3,5-triazin-2-amine]", "values": [
      {"measurement": "pEC50", "setting": "U251", "value": "≥ 6.00"}
    ]},
    {"smiles": "Cc1ccc(Nc2nc(N/N=C/c3c[nH]c4ccccc34)nc(N3CCOc4ccccc43)n2)cc1", "note": "[Example 48, (E)-4-(2-((1H-Indol-3-yl)methylene)hydrazinyl)-6-(2H-benzo[b][1,4]oxazin-4(3H)-yl)-N-(p-tolyl)-1,3,5-triazin-2-amine]", "values": [
      {"measurement": "pEC50", "setting": "U251", "value": "< 4.30"}
    ]},
    {"smiles": "COC1CCN(c2nc(N/N=C/c3c[nH]c4ccccc34)nc(Nc3ccc(C)cc3)n2)CC1", "note": "[Example 49, (E)-4-(2-((1H-Indol-3-yl)methylene)hydrazinyl)-6-(4-methoxypiperidin-1-yl)-N-(p-tolyl)-1,3,5-triazin-2-amine]", "values": [
      {"measurement": "pEC50", "setting": "U251", "value": "< 4.30"}
    ]},
    {"smiles": "Cc1ccc(Nc2nc(N/N=C/c3c[nH]c4ccccc34)nc(N3CCOCC3C)n2)cc1", "note": "(centres unmarked) [Example 50, (E)-4-(2-((1H-Indol-3-yl)methylene)hydrazinyl)-6-(3-methylmorpholino)-N-(p-tolyl)-1,3,5-triazin-2-amine]", "values": [
      {"measurement": "pEC50", "setting": "U251", "value": "≥ 6.00"}
    ]},
    {"smiles": "COCCN(c1nc(N/N=C/c2c[nH]c3ccccc23)nc(Nc2ccc(C)cc2)n1)C(C)C", "note": "[Example 51, (E)-6-(2-((1H-Indol-3-yl)methylene)hydrazinyl)-N2-isopropyl-N2-(2-methoxyethyl)-N4-(p-tolyl)-1,3,5-triazine-2,4-diamine]", "values": [
      {"measurement": "pEC50", "setting": "U251", "value": "5.00 to 6.00"}
    ]},
    {"smiles": "Cc1ccc(Nc2nc(N/N=C/c3c[nH]c4ccccc34)nc(N3C4CCC3COC4)n2)cc1", "note": "[Example 52, (E)-4-(2-((1H-Indol-3-yl)methylene)hydrazinyl)-6-(3-oxa-8-azabicyclo[3.2.1]octan-8-yl)-N-(p-tolyl)-1,3,5-triazin-2-amine]", "values": [
      {"measurement": "pEC50", "setting": "U251", "value": "5.00 to 6.00"}
    ]},
    {"smiles": "Cc1ccc(Nc2nc(N/N=C\\c3coc4ccccc34)nc(N3CCOCC3)n2)cc1", "note": "[Example 53, 4-(2-(benzofuran-3-ylmethylene)hydrazinyl)-6-morpholino-N-(p-tolyl)-1,3,5-triazin-2-amine]", "values": [
      {"measurement": "pEC50", "setting": "U251", "value": "< 4.30"}
    ]},
    {"smiles": "Cc1ccc(Nc2nc(NCCc3c[nH]c4ccccc34)nc(N3CCOCC3)n2)cc1", "note": "[Example 54, N2-(2-(1H-indol-3-yl)ethyl)-6-morpholino-N4-(p-tolyl)-1,3,5-triazine-2,4-diamine]", "values": [
      {"measurement": "pEC50", "setting": "U251", "value": "< 4.30"}
    ]},
    {"smiles": "C(=N\\Nc1nc(Nc2cccc3ccccc23)nc(N2CCOCC2)n1)/c1c[nH]c2ccccc12", "note": "[Example 55, (E)-4-(2-((1H-indol-3-yl)methylene)hydrazinyl)-6-morpholino-N-(naphthalen-1-yl)-1,3,5-triazin-2-amine]", "values": [
      {"measurement": "pEC50", "setting": "U251", "value": "≥ 6.00"}
    ]},
    {"smiles": "Cc1[nH]c2ccccc2c1/C=N/Nc1nc(Nc2ccc([N+](=O)[O-])cc2)nc(N2CCCCCC2)n1", "note": "[Example 56, (E)-4-(azepan-1-yl)-6-(2-((2-methyl-1H-indol-3-yl)methylene)hydrazinyl)-N-(4-nitrophenyl)-1,3,5-triazin-2-amine]", "values": [
      {"measurement": "pEC50", "setting": "U251", "value": "< 4.30"}
    ]},
    {"smiles": "CCCS(=O)(=O)Nc1ccc(F)c(C(=O)c2c[nH]c3ncc(-c4ccc(Cl)cc4)cc23)c1F", "note": "[vemurafenib, N-(3-(5-(4-chlorophenyl)-1H-pyrrolo[2,3-b]pyridine-3-carbonyl)-2,4-difluorophenyl)propane-1-sulfonamide, reference compound]", "values": [
      {"measurement": "effect on cell killing, alone", "setting": "U251 glioblastoma cell", "value": "little effect"}
    ]}
  ]
}
